US11285127B2, “Compositions and methods for lowering triglycerides without raising LDL-C levels in a subject on concomitant statin therapy” (Amarin Pharmaceuticals Ireland Limited, priority 2013, dated 2022)

Test system: patients with fasting triglyceride levels >200 mg/dl and <500 mg/dl despite statin therapy
Assay: 12-week study: lipid profile (TC, LDL-C, HDL-C, non-HDL-C, VLDL-C, VLDL-TG, RLP-C)
Type: in vivo, human
Details: MITT
Excerpt: Parameters (a)-(z) can be measured in accordance with any clinically acceptable methodology. For example, triglycerides, total cholesterol, HDL-C and fasting blood sugar can be sample from serum and analyzed using standard photometry techniques. VLDL-TG, LDL-C and VLDL-C can be calculated or determined using serum lipoprotein fractionation by preparative ultracentrifugation and subsequent quantitative analysis by refractometry or by analytic ultracentrifugal methodology. Apo A1, Apo B and hsCRP can be determined from serum using standard nephelometry techniques. Lipoprotein (a) can be determined from serum using standard turbidimetric immunoassay techniques. LDL particle number and particle size can be determined using nuclear magnetic resonance (NMR) spectrometry. Remnants lipoproteins and LDL-phospholipase A2 can be determined from EDTA plasma or serum and serum, respectively, using enzymatic immunoseparation techniques. Oxidized LDL, intercellular adhesion molecule-1 and interleukin-2 levels can be determined from serum using standard enzyme immunoassay techniques. These techniques are described in detail in standard textbooks, for example Tietz Fundamentals of Clinical Chemistry, 6th Ed. (Burtis, Ashwood and Borter Eds.), WB Saunders Company.
A multi-center, placebo-controlled, randomized, double-blind, 12-week study was performed to evaluate the efficacy and safety of >96% E-EPA in patients with fasting triglyceride levels >200 mg/dl and <500 mg/dl despite statin therapy (the mean of two qualifying entry values needed to be >185 mg/dl and at least one of the values needed to be >200 mg/dl). The primary objective of the study was to determine the efficacy of >96% E-EPA 2 g daily and 4 g daily, compared to placebo, in lowering fasting TG levels in patients with high risk for cardiovascular disease and with fasting TG levels 200 mg/dl and <500 mg/dl, despite treatment to LDL-C goal on statin therapy.
The secondary objectives of this study were the following: • 1. To determine the safety and tolerability of >96% E-EPA 2 g daily and 4 g daily; • 2. To determine the effect of >96% E-EPA on lipid and apolipoprotein profiles including total cholesterol (TC), non-high-density lipoprotein cholesterol (non-HDL-C), low density lipoprotein cholesterol (LDL-C), high density lipoprotein cholesterol (HDL-C), and […]; • 3. To determine the effect of >96% E-EPA on lipoprotein associated phospholipase A2 (Lp-PLA2) from baseline to week 12; • 4. To determine the effect of >96% E-EPA on low-density lipoprotein (LDL) particle number and size; • 5. To determine the effect of >96% E-EPA on oxidized LDL; • 6. To determine the effect of >96% E-EPA on fasting plasma glucose (FPG) and hemoglobin A1c (HbA1c); • 7. To determine the effect of >96% E-EPA on insulin resistance; • 8. To determine the effect of >96% E-EPA on high-sensitivity C-reactive protein (hsCRP); • 9. To determine the effects of >96% E-EPA 2 g daily and 4 g daily on the incorporation of fatty acids into red blood cell membranes and into plasma phospholipids; • 10. To explore the relationship between baseline fasting TG levels and the reduction in fasting TG levels; and • 11. To explore the relationship between changes of fatty acid concentrations in plasma and red blood cell membranes, and the reduction in fasting TG levels.
The primary efficacy variable for the double-blind treatment period was percent change in TG from baseline to Week 12 endpoint. […]

[1] = AMR 101 2 g + statin, Atorva subgroup
[2] = AMR 101 2 g + statin, Rosuva subgroup
[3] = AMR 101 2 g + statin, Simva subgroup
[4] = AMR 101 2 g + statin, Statin Potency High
[5] = AMR 101 2 g + statin, Statin Potency Low
[6] = AMR 101 2 g + statin, Statin Potency Medium
[7] = AMR 101 2 g + statin, Diabetes No, Week 12 endpoint
[8] = AMR 101 2 g + statin, Diabetes Yes, Week 12 endpoint
[9] = AMR 101 2 g + statin, Non-statin Washout No, Week 12 endpoint
[10] = AMR 101 2 g + statin, Non-statin Washout Yes, Week 12 endpoint
[11] = AMR 101 2 g + statin, baseline TG tertile Highest (≥289.5 mg/dL), Week 12 endpoint
[12] = AMR 101 2 g + statin, baseline TG tertile Lowest (<230.5 mg/dL), Week 12 endpoint
[13] = AMR 101 2 g + statin, baseline TG tertile Middle (230.5 to <289.5 mg/dL), Week 12 endpoint
[14] = AMR101 2 g/d + statin, Week 12 endpoint
[15] = AMR101 2 g/d + statin, percent change from baseline to Week 12 endpoint
[16] = AMR 101 4 g + statin, Atorva subgroup

CC/C=C\C/C=C\C/C=C\C/C=C\C/C=C\CCCC(=O)OCC [AMR101, ethyl eicosapentaenoate]
LDL-C Median % chg from BL [1]: 4.9% | LDL-C, Diff from pbo (Hodges-Lehmann median difference) [1]: 1.1 | LDL-C, EOT (Week 12 endpoint) median [1]: 88.0 | Non-HDL-C Median % chg from BL [1]: 10.5% | Non-HDL-C, Diff from pbo (Hodges-Lehmann median difference) [1]: 2.0 | Non-HDL-C, EOT (Week 12 endpoint) median [1]: 135.0 | LDL-C Median % chg from BL [2]: 4.3% | LDL-C, Diff from pbo (Hodges-Lehmann median difference) [2]: −4.2 | LDL-C, EOT (Week 12 endpoint) median [2]: 87.0 | Non-HDL-C Median % chg from BL [2]: 2.7% | Non-HDL-C, Diff from pbo (Hodges-Lehmann median difference) [2]: −9.0 | Non-HDL-C, EOT (Week 12 endpoint) median [2]: 133.0 | LDL-C Median % chg from BL [3]: 1.8% | LDL-C, Diff from pbo (Hodges-Lehmann median difference) [3]: −4.8 | LDL-C, EOT (Week 12 endpoint) median [3]: 88.0 | Non-HDL-C Median % chg from BL [3]: 0.0% | Non-HDL-C, Diff from pbo (Hodges-Lehmann median difference) [3]: −6.8 | Non-HDL-C, EOT (Week 12 endpoint) median [3]: 133.5 | LDL-C Median % chg from BL [4]: 3.1% | LDL-C, Diff from pbo (Hodges-Lehmann median difference) [4]: −1.7 | LDL-C, EOT (Week 12 endpoint) median [4]: 91.0 | Non-HDL-C Median % chg from BL [4]: 5.4% | Non-HDL-C, Diff from pbo (Hodges-Lehmann median difference) [4]: −3.5 | Non-HDL-C, EOT (Week 12 endpoint) median [4]: 142 | LDL-C Median % chg from BL [5]: 0.9% | LDL-C, Diff from pbo (Hodges-Lehmann median difference) [5]: 7.1 | LDL-C, EOT (Week 12 endpoint) median [5]: 95.0 | Non-HDL-C Median % chg from BL [5]: −2.2% | Non-HDL-C, Diff from pbo (Hodges-Lehmann median difference) [5]: 3.3 | Non-HDL-C, EOT (Week 12 endpoint) median [5]: 135 | LDL-C Median % chg from BL [6]: 2.4% | LDL-C, Diff from pbo (Hodges-Lehmann median difference) [6]: −5.9 | LDL-C, EOT (Week 12 endpoint) median [6]: 85.0 | Non-HDL-C Median % chg from BL [6]: 1.7% | Non-HDL-C, Diff from pbo (Hodges-Lehmann median difference) [6]: −7.1 | Non-HDL-C, EOT (Week 12 endpoint) median [6]: 133 | LDL-C Diff from pbo (median % chg, Hodges-Lehmann) [7]: −3.1% | LDL-C EOT Median [7]: 88.0 mg/dL | LDL-C Median % chg from BL [7]: 2.6% | Non-HDL-C Diff from pbo (median % chg, Hodges-Lehmann) [7]: −8.6% | Non-HDL-C EOT Median [7]: 133 mg/dL | Non-HDL-C Median % chg from BL [7]: −0.7% | LDL-C Diff from pbo (median % chg, Hodges-Lehmann) [8]: −3.8% | LDL-C EOT Median [8]: 87.0 mg/dL | LDL-C Median % chg from BL [8]: 2.2% | Non-HDL-C Diff from pbo (median % chg, Hodges-Lehmann) [8]: −4.4% | Non-HDL-C EOT Median [8]: 135 mg/dL | Non-HDL-C Median % chg from BL [8]: 5.1% | LDL-C Diff from pbo (median % chg, Hodges-Lehmann) [9]: −1.2% | LDL-C EOT Median [9]: 91.5 mg/dL | LDL-C Median % chg from BL [9]: 3.5% | Non-HDL-C Diff from pbo (median % chg, Hodges-Lehmann) [9]: −4.6% | Non-HDL-C EOT Median [9]: 135 mg/dL | Non-HDL-C Median % chg from BL [9]: 3.8% | LDL-C Diff from pbo (median % chg, Hodges-Lehmann) [10]: −6.3% | LDL-C EOT Median [10]: 85.0 mg/dL | LDL-C Median % chg from BL [10]: 2.2% | Non-HDL-C Diff from pbo (median % chg, Hodges-Lehmann) [10]: −6.9% | Non-HDL-C EOT Median [10]: 133 mg/dL | Non-HDL-C Median % chg from BL [10]: 0.0% | LDL-C Diff from pbo (median % chg, Hodges-Lehmann) [11]: −2.0% | LDL-C EOT Median [11]: 85.0 | LDL-C Median % chg from BL [11]: 1.7% | Non-HDL-C Diff from pbo (median % chg, Hodges-Lehmann) [11]: −5.0% | Non-HDL-C EOT Median [11]: 150 | Non-HDL-C Median % chg from BL [11]: 3.0% | LDL-C Diff from pbo (median % chg, Hodges-Lehmann) [12]: −5.7% | LDL-C EOT Median [12]: 92.0 | LDL-C Median % chg from BL [12]: 3.1% | Non-HDL-C Diff from pbo (median % chg, Hodges-Lehmann) [12]: −4.2% | Non-HDL-C EOT Median [12]: 129 | Non-HDL-C Median % chg from BL [12]: 6.9% | LDL-C Diff from pbo (median % chg, Hodges-Lehmann) [13]: −2.6% | LDL-C EOT Median [13]: 86.5 | LDL-C Median % chg from BL [13]: 3.1% | Non-HDL-C Diff from pbo (median % chg, Hodges-Lehmann) [13]: −7.0% | Non-HDL-C EOT Median [13]: 132 | Non-HDL-C Median % chg from BL [13]: −1.2% | HDL-C Week 12 EP Median (IQR) (AMR101 2 g/d + statin): 38.0 (11.0) mg/dL | LDL-C Week 12 EP Median (IQR) (AMR101 2 g/d + statin): 87.0 (27.0) mg/dL | Non-HDL-C Week 12 EP Median (IQR) (AMR101 2 g/d + statin): 134.0 (41.0) mg/dL | RLP-C Week 12 EP Median (IQR) (AMR101 2 g/d + statin): 11.0 (7.0) mg/dL | Total cholesterol Week 12 EP Median (IQR) (AMR101 2 g/d + statin): 175.0 (44.0) mg/dL | VLDL-C Week 12 EP Median (IQR) (AMR101 2 g/d + statin): 44.0 (25.0) mg/dL | VLDL-TG Week 12 EP Median (IQR) (AMR101 2 g/d + statin): 168.0 (98.0) mg/dL | HDL-C Percent change from Baseline Median (IQR) [14]: 0 (19.5) % | LDL-C Percent change from Baseline Median (IQR) [14]: 2.4 (26.1) % | Non-HDL-C Percent change from Baseline Median (IQR) [14]: 2.4 (26.1) % | RLP-C Percent change from Baseline Median (IQR) [14]: −11.1 (40.0) % | Total cholesterol Percent change from Baseline Median (IQR) [14]: 2.1 (19.6) % | VLDL-C Percent change from Baseline Median (IQR) [14]: 1.6 (54.6) % | VLDL-TG Percent change from Baseline Median (IQR) [14]: −2.1 (48.9) % | HDL-C Difference from placebo Estimated median [15]: −2.2% | LDL-C Difference from placebo Estimated median [15]: −3.6% | Non-HDL-C Difference from placebo Estimated median [15]: −5.5% | RLP-C Difference from placebo Estimated median [15]: −16.7% | Total cholesterol Difference from placebo Estimated median [15]: −4.8% | VLDL-C Difference from placebo Estimated median [15]: −10.5% | VLDL-TG Difference from placebo Estimated median [15]: −11.3% | LDL-C Median % chg from BL [16]: 9.0% | LDL-C, Diff from pbo (Hodges-Lehmann median difference) [16]: 2.5 | LDL-C, EOT (Week 12 endpoint) median [16]: 82.5 | Non-HDL-C Median % chg from BL [16]: −6.3%
